{"source": "patent US20230181633A1", "about": "“METHODS OF TREATING CANCER USING A COMBINATION OF TUMOR MEMBRANE VESICLES AND METFORMIN” (METACLIPSE THERAPEUTICS CORPORATION, priority 2019, published 2023)", "key": {"[1]": {"tested_on": "immune cell subtypes in blood", "experiment": "Immune cell subtypes in blood of 4T1-challenged mice", "type": "in vivo, mouse", "protocol": "FIGS. 2(A-C) is a set of graphs showing percentages of T-cell subtypes in the blood of mice with 4T1 tumor. After 4T1 tumor challenge and treatment with water, TMV alone, MET alone, or TMV+MET, mouse blood samples were analyzed for percentage of CD3+ (FIG. 2A), CD4+ (FIG. 2B), and CD8+ (FIG. 2C) T-cells, in relation to CD45+ T cells. Filled circle is water treatment group, filled square is MET treatment group, filled grey triangle is TMV treatment group, upside down triangle is TMV + MET treatment group.\nFIGS. 3(A-B) is a set of Fluorescence Activated Cell Sorting (FACS) plots showing presence of myeloid-derived suppressor cells (MDSCs) (FIG. 3A) and CD3+ cells (FIG. 3B) in the blood of 4T1 tumor-challenged mice.\nFIG. 4 is a set of graphs showing amounts of MDSCs (top panel) and CD3+ T cells (bottom panel) in the blood of 4T1 tumor-challenged mice treated with water, TMV alone, MET alone, or TMV+MET. Filled circle is water treatment group, filled square is MET treatment group, filled grey triangle is TMV treatment group, upside down triangle is TMV + MET treatment group. **p<0.01.\nThe 4T1-challenged mice were further analyzed for immunological effects upon administration of TMV, MET, or both. Blood samples were obtained from mice, and samples were subjected to analysis to determine presence of immune cell subtypes."}, "[2]": {"tested_on": "4T1 mouse breast cancer cells", "experiment": "Survival after surgical resection of 4T1 tumors", "type": "in vivo", "protocol": "FIG. 8 is a graph showing survival of mice treated with PBS, TMV alone, MET alone, or TMV+MET after surgical resection of tumors. Mice were challenged 10 days before surgery with 4T1 tumor cells. After tumor establishment, tumors were resected on Day 0. Beginning on Day 5, 50 mg/kg metformin was administered. On Days 5 and 12, 4T1-derived TMVs were administered. […] Solid line is PBS treatment group, dashed line is MET alone, dotted line is TMV alone, dash and dot line is TMV and MET treatment.\nMice were divided into four groups of five mice per group, wherein each group was to be treated with either a PBS control, metformin (MET) alone, 4T1-derived TMV (as described in Example 1) or TMV+MET. Each mouse was challenged with 4T1 mouse breast cancer cells by subcutaneous injection and tumors were later surgically resected (Day 0). On Day 5, mice in the MET and TMV+MET groups were administered 50 mg/kg metformin in drinking water daily until Day 20. On Days 5 and 12, mice in the TMV and TMV+MET groups were administered a dose of TMVs formed from 4T1 cells. Mice were then analyzed for survival (FIG. 8)."}, "4T1 tumor cells": {"tested_on": "4T1 tumor cells", "experiment": "Lung metastasis in 4T1-challenged mice", "type": "in vivo, mouse", "protocol": "FIGS. 6(A-B) is a set of graphs showing the amount of 4T1 tumor cells (FIG. 6A) and metastatic clones (FIG. 6B) obtained in the lungs of 4T1 tumor-challenged mice treated with water, TMV alone, MET alone, or TMV + MET. **p<0.01, ***p<0.001,\n4T1-challenged mice were also analyzed for their metastatic potential. Upon sacrificing the mice, the lungs were analyzed for tumor colony forming units […] and overall total tumor cells (FIG. 6B)."}, "[3]": {"tested_on": "oral squamous cell carcinoma MOC2 cells", "experiment": "MOC2 head and neck cancer model, tumor growth", "type": "in vivo, C57BL/6J mice", "conditions": "MOC2-challenged mice, treatment from Day 3 (FIG. 9A, 9B)", "experimental": "C57BL/6J mice were inoculated with 500,000 oral squamous cell carcinoma MOC2 cells s.c. in the hind flank. Tumors were palpable at day 3 post challenge. PBS, MET alone, TMV alone, or a combination of TMV + MET was employed at days 3, 8, 13, 18, and 25. Tumor growth was measured over time. […] Filled circle is PBS treatment group, filled square is MET alone treatment group, filled grey triangle is TMV alone treatment group, upside down triangle is MET + TMV treatment group. n=5 per group, two-way ANOVA with Tukey’s multiple comparison for statistical significance. *p<0.05, **p<0.01.\nIn the murine head and neck MOC2 cancer model, the TMV vaccine generated from MOC2 tumors was administered at Day 3, while MET was started at Day 3 and continued every other day until end point."}, "SCCVII cells": {"tested_on": "SCCVII cells", "experiment": "SCCVII squamous cell tumor challenge, tumor growth over time", "type": "in vivo, C3H/Hej mice", "protocol": "FIGS. 1(A-C) is a set of graphs showing tumor growth over time. […] Tumor growth was measured over time. […] Tumors were palpable at day 3, which is when treatment with PBS, MET alone, TMV alone, or TMV + MET was initiated. The subsequent treatments were employed at days […]. […] Tumors were palpable at day 3, treatment of PBS control, MET alone, TMV alone, or TMV + MET was applied at days 10, 17, 24, 31, and 40. Tumor growth was measured over time. n=5 per group, two-way ANOVA with Tukey’s multiple comparison for statistical significance. For FIGS. 1(A-C), filled circle is PBS treatment group, filled square is MET alone treatment group, filled grey triangle is TMV alone treatment group, upside down triangle is MET + TMV treatment group. *p<0.05, **p<0.01, ***p<0.001.\nIn the same model (SCCVII), the TMV and MET treatment were delayed and given at Day 10 when the tumors were established (about 50 mm^2) (FIG. 1C)."}, "MOC2 cells": {"tested_on": "MOC2 cells", "experiment": "MOC2 spontaneous lung metastasis", "type": "in vivo, C57BL/6J mice", "conditions": "lungs harvested after 25 days of tumor growth (FIG. 10)", "text": "C57BL/6J mice were inoculated with 500,000 MOC 2 cells s.c. in the hind flank. […] PBS, MET alone, TMV alone, or a combination of TMV + MET was employed at days 3, 8, 13, 18, and 25. Lungs were harvested and dispersed into single cell suspension after 25 days of tumor growth. Metastatic tumor cells were selected using G418 in vitro for 11-14 days and metastatic cells were quantified using a Nexelcom T4 cell counter.\nIn the murine head and neck MOC2 cancer model, the TMV vaccine generated from MOC2 tumors was administered at Day 3, while MET was started at Day 3 and continued every other day until end point. […] The lungs from these MOC2-challenged mice were harvested after 25 days of tumor growth and the number of metastatic cells was quantified after suspending the lungs into a single cell suspension (FIG. 10)."}}}
{"smiles": "CN(C)C(=N)NC(=N)N", "note": "[MET, 3-(diaminomethylidene)-1,1-dimethylguanidine]", "values": [{"measurement": "amount of myeloid derived suppressor cells (MDSC) in blood samples", "setting": "[1]; 4T1-challenged mice (FIG. 3A, FIG. 4 upper panel)", "value": "decreased"}, {"measurement": "amount of CD3+ T cells in the blood", "setting": "[1]; 4T1-challenged mice, by week 2, vs PBS control (FIG. 2A)", "value": "increased"}, {"measurement": "amount of CD4+ T cells in the blood", "setting": "[1]; 4T1-challenged mice, by week 2, vs PBS control (FIG. 2B)", "value": "increased"}, {"measurement": "amount of CD8+ T cells in the blood", "setting": "[1]; 4T1-challenged mice, by week 2, vs PBS control (FIG. 2C)", "value": "increased"}, {"measurement": "mouse survival post-surgery (in words)", "setting": "[2]; 4T1 tumors resected Day 0 (FIG. 8)", "value": "increased mouse survival"}, {"measurement": "survival", "setting": "[2]; at day 60 after resection of 4T1 tumors, 50 mg/kg metformin from Day 5 (FIG. 8)", "value": 0, "unit": "%"}, {"measurement": "lung metastasis: tumor colony forming units", "setting": "4T1 tumor cells; lungs of 4T1-challenged mice at sacrifice (FIG. 6A)", "value": "not MET alone significantly reduced"}, {"measurement": "lung metastasis: overall total tumor cells", "setting": "4T1 tumor cells; lungs of 4T1-challenged mice at sacrifice (FIG. 6B)", "value": "not MET alone significantly reduced"}, {"measurement": "MOC2 tumor growth / tumor area", "setting": "[3]", "value": "no reduction in tumor growth"}, {"measurement": "tumor growth, established tumors", "setting": "SCCVII cells; SCCVII, treatment delayed to Day 10, tumors about 50 mm^2 (FIG. 1C)", "value": "did not have a significant decrease in growth"}, {"measurement": "tumor size (in words)", "setting": "SCCVII cells; SCCVII-challenged mice, treatment from day 3 (FIG. 1B)", "value": "reduced tumor size"}, {"measurement": "number of metastatic MOC2 cells per lung", "setting": "MOC2 cells", "value": "did not have a significant reduction"}]}
